Data published in patent US20260042764A1, “COMPOSITIONS AND METHODS FOR INHIBITION OF KRAS” (TheRas, Inc., priority 2022, published 2026).

Experiments:
GP2d cells (KRAS G12D) = experiment: Cell-based pERK HTRF assay in GP2d cell (Biological Example 2); conditions: GP2d, GP2d (KRAS G12D) cells, pERK HTRF; class symbols
Procedure, shortened: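 Cells grown in DMEM with 10% FBS were exposed to compound for 60 min at 0.25% DMSO, using a 9-point half-log series starting at 1 μM or 100 nM. Lysates were then mixed with d2 and Eu cryptate antibodies for 4–24 h at room temperature, and pERK was read by HTRF.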

[1] = target: T1, Avi-KRAS G12D (1-169) GppNHp/RAF1 RBD-3xFLAG (52-151) (Homo sapiens, UniProt P01116, G12D); experiment: Raf1-KRAS G12D-GppNHP disruption HTRF assay (Biological Example 1); type: binding; conditions: KRAS G12D, GppNHp-loaded; class symbols
T1 construct: Avi-KRAS G12D (1-169)
T1 sequence (P01116 1-169 isoform P01116-2 G12D): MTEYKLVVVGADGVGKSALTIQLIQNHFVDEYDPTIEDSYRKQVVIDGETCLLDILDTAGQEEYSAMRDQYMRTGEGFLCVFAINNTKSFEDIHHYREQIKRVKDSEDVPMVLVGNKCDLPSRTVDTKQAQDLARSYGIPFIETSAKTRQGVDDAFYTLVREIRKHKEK
Procedure, shortened: (§1)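 Compound disruption of KRAS-GppNHp/RAF1 RBD binding read by HTRF after two sequential 1 h room-temperature incubations (protein mix, then detection reagents), shaken at 700 rpm. Buffer Tris pH 7.5 with MgCl2, BSA, Tween and 10% DMSO; results given as percent activity relative to DMSO (100%).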

[2] = target: T2, Avi-KRAS G12R (1-169) GppNHp/RAF1 RBD-3xFLAG (52-151) (Homo sapiens, UniProt P01116, G12R); experiment: Raf1-KRAS G12R-GppNHP disruption HTRF assay (Biological Example 1); type: binding; conditions: KRAS G12R, GppNHp-loaded; class symbols
T2 construct: Avi-KRAS G12R (1-169)
T2 sequence (P01116 1-169 isoform P01116-2 G12R): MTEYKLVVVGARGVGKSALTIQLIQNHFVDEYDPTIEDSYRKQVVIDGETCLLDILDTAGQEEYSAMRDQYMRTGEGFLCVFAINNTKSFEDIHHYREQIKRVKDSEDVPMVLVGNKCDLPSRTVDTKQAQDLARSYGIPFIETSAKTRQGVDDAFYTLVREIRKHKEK
Procedure, shortened: as §1

[3] = target: T3, Avi-KRAS G12V (1-169) GppNHp/RAF1 RBD-3xFLAG (52-151) (Homo sapiens, UniProt P01116, G12V); experiment: Raf1-KRAS G12V-GppNHP disruption HTRF assay (Biological Example 1); type: binding; conditions: KRAS G12V, GppNHp-loaded; class symbols
T3 construct: Avi-KRAS G12V (1-169)
T3 sequence (P01116 1-169 isoform P01116-2 G12V): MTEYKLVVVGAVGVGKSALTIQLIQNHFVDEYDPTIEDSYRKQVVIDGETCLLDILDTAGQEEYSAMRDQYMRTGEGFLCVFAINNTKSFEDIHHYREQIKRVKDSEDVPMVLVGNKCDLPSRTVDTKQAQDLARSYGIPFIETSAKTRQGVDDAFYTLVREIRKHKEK
Procedure, shortened: as §1

SW620 cells (KRAS G12V) = experiment: Cell-based pERK HTRF assay in SW620 cell (Biological Example 4); conditions: Homo sapiens, SW-620, SW620 (KRAS G12V) cells, pERK HTRF; class symbols
Procedure, shortened: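 SW620 (KRAS G12V) cells seeded at 3×10^4/well in RPMI, 10% FBS, then treated next day for 4 h with a 9-point half-log series from 1 μM top (0.25% DMSO). Lysates analyzed for pERK by HTRF (Eu cryptate/d2 antibodies, 4–24 h at room temperature), excitation 320 nm, emission 615 nm.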

[4] = target: T4, Avi-KRAS WT (1-169) GppNHp/RAF1 RBD-3xFLAG (52-151) (Homo sapiens, UniProt P01116); experiment: Raf1-KRAS WT-GppNHP disruption HTRF assay (Biological Example 1); type: binding; conditions: KRAS WT, GppNHp-loaded; class symbols
T4 construct: Avi-KRAS WT (1-169)
T4 sequence (P01116 1-169 isoform P01116-2): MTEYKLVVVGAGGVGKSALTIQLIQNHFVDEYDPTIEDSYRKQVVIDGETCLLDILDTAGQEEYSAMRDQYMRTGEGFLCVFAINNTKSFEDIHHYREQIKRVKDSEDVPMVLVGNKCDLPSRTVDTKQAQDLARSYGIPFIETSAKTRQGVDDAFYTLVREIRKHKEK
Procedure, shortened: as §1

Row | SMILES | IC50 (GP2d cells (KRAS G12D)) [nM] | IC50 [1] [nM] | IC50 [2] [nM] | IC50 [3] [nM] | IC50 (SW620 cells (KRAS G12V)) [nM] | IC50 [4] [nM]
1 | CCN(c1nc(OC[C@@]23CCCN2C[C@H](F)C3)nc2c(F)c(-c3ccc(F)c4sc(N)c(C#N)c34)c(C(F)(F)F)cc12)[C@H]1CCN(C(=O)c2cnn(C)c2)C1 (atropisomer, axis not shown) [Compound 748] | < 100 | < 100 | < 100 | < 100 | < 100 | < 100
2 | CCN(c1nc(OC[C@@]23CCCN2C[C@H](F)C3)nc2c(F)c(-c3ccc(F)c4sc(N)c(C#N)c34)c(C(F)(F)F)cc12)[C@H]1CCN(C(=O)[C@H]2C[C@H]2F)C1 (atropisomer, axis not shown) [Compound 750] | < 100 | < 100 | < 100 | < 100 | < 100 | < 100
3 | CCN(c1nc(OC[C@@]23CCCN2C[C@H](F)C3)nc2c(F)c(-c3ccc(F)c4sc(N)c(C#N)c34)c(C(F)(F)F)cc12)[C@H]1C[C@@H](C)N(C(=O)[C@H](C)OC)C1 (atropisomer, axis not shown) [Compound 753] | < 100 | 100 to 1000 | 100 to 1000 | 100 to 1000 | < 100 | 100 to 1000
4 | CN(C)C(=O)N1CC[C@H](N(C)c2nc(OC[C@@]34CCCN3C[C@H](F)C4)nc3c(F)c(-c4ccc(F)c5sc(N)c(C#N)c45)c(C(F)(F)F)cc23)C1 (atropisomer, axis not shown) [Compound 755] | < 100 | < 100 | < 100 | 100 to 1000 | < 100 | 100 to 1000
5 | COC(=O)N1CC[C@H](N(C)c2nc(OC[C@@]34CCCN3C[C@H](F)C4)nc3c(F)c(-c4ccc(F)c5sc(N)c(C#N)c45)c(C(F)(F)F)cc23)C1 (atropisomer, axis not shown) [Compound 756] | < 100 | < 100 | < 100 | < 100 | < 100 | < 100
6 | CCN(c1nc(OC[C@@]23CCCN2C[C@H](F)C3)nc2c(F)c(-c3ccc(F)c4sc(N)c(C#N)c34)c(C(F)(F)F)cc12)[C@H]1C[C@H]2CN(C3CCC3)C(=O)N2C1 (atropisomer, axis not shown) [Compound 757] | < 100 | < 100 | < 100 | < 100 | < 100 | < 100
7 | CCOC1CN(C(=O)N2CC[C@H](N(CC)c3nc(OC[C@@]45CCCN4C[C@H](F)C5)nc4c(F)c(-c5ccc(F)c6sc(N)c(C#N)c56)c(C(F)(F)F)cc34)C2)C1 (atropisomer, axis not shown) [Compound 758] | < 100 | < 100 | < 100 | < 100 | < 100 | < 100
8 | [2H]C1([2H])OC(=O)N2C[C@@H](N(CC)c3nc(OC[C@@]45CCCN4C[C@H](F)C5)nc4c(F)c(-c5ccc(F)c6sc(N)c(C#N)c56)c(C(F)(F)F)cc34)C[C@H]21 (atropisomer, axis not shown) [Compound 760] | < 100 | < 100 | < 100 | < 100 | < 100 | < 100
9 | CCN(c1nc(OC[C@@]23CCCN2C[C@H](F)C3)nc2c(F)c(-c3ccc(F)c4sc(N)c(C#N)c34)c(C(F)(F)F)cc12)[C@H]1CCN(C(=O)N2CC(OC)C2)[C@@H]1C (atropisomer, axis not shown) [Compound 761] | < 100 | < 100 | < 100 | < 100 | < 100 | < 100
10 | CCN1C[C@@H]2C[C@H](N(CC)c3nc(OC[C@@]45CCCN4C[C@H](F)C5)nc4c(F)c(-c5ccc(F)c6sc(N)c(C#N)c56)c(C(F)(F)F)cc34)CN2C1=O (atropisomer, axis not shown) [Compound 762] | < 100 | < 100 | < 100 | < 100 | < 100 | < 100
11 | CCN(c1nc(OC[C@@]23CCCN2C[C@H](F)C3)nc2c(F)c(-c3ccc(F)c4sc(N)c(C#N)c34)c(C(F)(F)F)cc12)[C@H]1C[C@H](C)N(C(=O)c2ccon2)C1 (atropisomer, axis not shown) [Compound 766] | < 100 | < 100 | < 100 | < 100 | < 100 | < 100
12 | COC(=O)N1CC[C@H](N(c2nc(OC[C@@]34CCCN3C[C@H](F)C4)nc3c(F)c(-c4ccc(F)c5sc(N)c(C#N)c45)c(C(F)(F)F)cc23)C2CC2)C1 (atropisomer, axis not shown) [Compound 767] | < 100 | < 100 | 100 to 1000 | 100 to 1000 | < 100 | 100 to 1000
13 | CCN(c1nc(OC[C@@]23CCCN2C[C@H](F)C3)nc2c(F)c(-c3ccc(F)c4sc(N)c(C#N)c34)c(C(F)(F)F)cc12)[C@H]1CCN(C(=O)[C@@H]2C[C@H]2F)C1 (atropisomer, axis not shown) [Compound 768] | < 100 | < 100 | < 100 | < 100 | < 100 | < 100
14 | CCN(c1nc(OC[C@@]23CCCN2C[C@H](F)C3)nc2c(F)c(-c3ccc(F)c4sc(N)c(C#N)c34)c(C(F)(F)F)cc12)[C@H]1CCN(C(=O)[C@@H]2CCCCO2)C1 (atropisomer, axis not shown) [Compound 769] | < 100 | < 100 | < 100 | < 100 | < 100 | < 100
15 | CCN(c1nc(OC[C@@]23CCCN2C[C@H](F)C3)nc2c(F)c(-c3ccc(F)c4sc(N)c(C#N)c34)c(C(F)(F)F)cc12)[C@H]1CCN(C(=O)[C@H]2CCCCO2)C1 (atropisomer, axis not shown) [Compound 770] | < 100 | < 100 | < 100 | < 100 | < 100 | < 100
16 | CCN(c1nc(OC[C@@]23CCCN2C[C@H](F)C3)nc2c(F)c(-c3ccc(F)c4sc(N)c(C#N)c34)c(C(F)(F)F)cc12)[C@H]1CCN(C(=O)c2cc(C)no2)C1 (atropisomer, axis not shown) [Compound 771] | < 100 | < 100 | < 100 | < 100 | < 100 | < 100
17 | CCN(c1nc(OC[C@@]23CCCN2C[C@H](F)C3)nc2c(F)c(-c3ccc(F)c4sc(N)c(C#N)c34)c(C(F)(F)F)cc12)[C@H]1CCN(C(=O)[C@H]2CC23CC3)C1 (atropisomer, axis not shown) [Compound 772] | < 100 | < 100 | < 100 | < 100 | < 100 | < 100
18 | CCN(c1nc(OC[C@@]23CCCN2C[C@H](F)C3)nc2c(F)c(-c3ccc(F)c4sc(N)c(C#N)c34)c(C(F)(F)F)cc12)[C@H]1CCN(C(=O)[C@@H]2CC23CC3)C1 (atropisomer, axis not shown) [Compound 774] | < 100 | 100 to 1000 | 100 to 1000 | 100 to 1000 | < 100 | 100 to 1000
19 | CCN(c1nc(OC[C@@]23CCCN2C[C@H](F)C3)nc2c(F)c(-c3ccc(F)c4sc(N)c(C#N)c34)c(C(F)(F)F)cc12)[C@H]1C[C@H]2CN(C3CC3)C(=O)N2C1 (atropisomer, axis not shown) [Compound 775] | < 100 | < 100 | < 100 | < 100 | < 100 | < 100
